Values joined by “and” are separate entries in the source; they are usually repeats but may differ in a detail not shown here. Equal entries are not always repeated. Marks after values point to notes of the source that are not given here. Square brackets hold non-standard residues; d marks the D form. Peptide text beside a SMILES is read from it. * marks the point of attachment. Bpa = N[C@@H](Cc1ccc(C(=O)c2ccccc2)cc1)C(=O)O; Phe(4-Cl) = N[C@@H](Cc1ccc(Cl)cc1)C(=O)O; hArg = N=C(N)NCCCC[C@H](N)C(=O)O; Nle = CCCC[C@H](N)C(=O)O; Abu = CC[C@H](N)C(=O)O; PhAc = O=C(Cc1ccccc1)*
What was measured:
[1] = test system: hGH-RH(1-29)NH2 induced GH release; test: Inhibition of GH release in superfused rat pituitary system; type: cell-based; conditions: for endocrine antagonistic potency: inhibition of the GH release stimulated by hGH-RH(1-29)NH2 (in words): general statement, in vitro and in vivo
Procedure: The analogs were tested in vitro in a test described earlier (S. Vigh and A. V Schally, Peptides 5:241-[…], 1984) with modification (Z. Rekasi and A. V. Schally, P.N.A.S. 90:2146-2149, 1993).
Briefly, the cells are preincubated with peptides for 9 minutes (3 mL) at various concentrations. Immediately after the incubation, 1 nM hGH-RH(1-29)NH2 is administered for 3 minutes (1 mL) 10 minute response). To check the duration of the antagonistic effect of the analogue, 1 nM hGH-RH(1-29)NH2 is applied 30, 60, 90, and 120 minutes later for 3 minutes [30, 60, 90, 120 min responses]. Net integral values of the GH responses are evaluated. GH responses are compared to and expressed as percent of the original GH response induced by 1 nM GH-RH(1-29)NH2 The effect of the new antagonists are compared to that of [Ac-Tyr^1, D-Arg^2]hGH-RH(1-29)NH2, the “Standard antagonist”.
Rat GH levels in aliquots of undiluted and diluted superfusion samples were measured by double-antibody radioimmunoassay using materials supplied by the National Hormone and Pituitary Program, Baltimore, Md. The results of RIA were analyzed with a computer program developed in our institute (V. Csernus and A. V. Schally, in Neuroendocrine Research Methods, Harwood Academic (Greenstein, B. D. ed., London, pp. 71-109, 1991), hereby incorporated by reference.

[2] = test system: PC-3 human prostate cancer xenografts; test: PC-3 xenografts in nude mice, Experiment 3: tumor growth; type: in vivo
Procedure: Male nude mice were implanted s.c. with 3 mm^3 pieces of PC-3 human hormone-independent prostate cancer tissue on both flanks. When tumors reached a volume of approximately 65 mm^3, the mice were divided into 7 experimental groups with 8 to 9 animals in each group and received single daily injections for 28 days as follows: 1. Control (vehicle solution); 2. JV-1-38 (10 μg/day s.c.); 3. Peptide 35 (10 μg/day s.c.); 4. Peptide 36 (10 μg/day s.c.); 5. Peptide 37 (10 μd/day s.c.); 6. Peptide 39 (10 μg/day s.c.); 7. Peptide 41 (10 μg/day s.c.). Tumor volumes were measured twice a week. The experiment was ended on day 28 by sacrificing the mice under Isofurane anesthesia. Resulting tumors were cleaned, weighed, and snapfrozen until further analyses. Trunk blood was collected from the abdominal aorta and serum was separated for RIA measurement of IGF-I. Statistical analyses of the measurement results were done by ANOVA followed by Fisher test; data are presented as the means±S.E.

[3] = antagonist 30 nM, 1 nM hGH-RH(1-29)NH2 at 0 min
[4] = antagonist 30 nM, 1 nM hGH-RH(1-29)NH2 at 30 min
[5] = antagonist 30 nM, 1 nM hGH-RH(1-29)NH2 at 60 min
[6] = antagonist 30 nM, 1 nM hGH-RH(1-29)NH2 at 90 min
[7] = antagonist 30 nM, 1 nM hGH-RH(1-29)NH2 at 120 min
[8] = 10 μg/day s.c., 28 days, vs control

Row | Molecule | GH response (% of control) 0 min [1, 3] | GH response (% of control) 30 min [1, 4] | GH response (% of control) 60 min [1, 5] | GH response (% of control) 90 min [1, 6] | GH response (% of control) 120 min [1, 7] | endocrine antagonistic potency: inhibition of the GH release stimulated by hGH-RH(1-29)NH2 (in words) [1] | Tumor volume (mm^3) Final ([2]; 10 μg/day s.c., 28 days) | Tumor volume doubling time ([2]; 10 μg/day s.c., 28 days) [days] | Tumor weight ([2]; 10 μg/day s.c., 28 days) [mg] | Tumor volume Final (% inhibition) [2, 8] | Tumor weight (% inhibition) [2, 8] | Tumor volume (mm^3) Initial ([2]; at start of treatment) [mm^3] | GH response (% of control) 0 min ([1]; antagonist 10 nM, 0 min) | GH response (% of control) 30 min ([1]; antagonist 10 nM, 30 min) | GH response (% of control) 60 min ([1]; antagonist 10 nM, 60 min) | GH response (% of control) 90 min ([1]; antagonist 10 nM, 90 min) | GH response (% of control) 120 min ([1]; antagonist 10 nM, 120 min)
1 | [PhAc-Tyr^1, D-Arg^2, Phe(pCl)^6, Har^9, Phe(pNH2)^10, Abu^15, Nle^27, D-Arg^28, Har^29]hGH-RH(1-29)NH2 [Peptide 37] | 33 % of control | 12 % of control | 15 % of control | 15 % of control | 19 % of control | high endocrine antagonistic potencies | 323 ± 68.0* mm^3 | 12.7 ± 2.03 | 440 ± 104 | (57%) | (37%) | 60.0 ± 13.0 |  |  |  |  | 
2 | CCCC[C@H](NC(=O)[C@@H](NC(=O)[C@H](CC(=O)O)NC(=O)[C@H](CCC(N)=O)NC(=O)[C@H](CC(C)C)NC(=O)[C@H](CC(C)C)NC(=O)[C@H](CCCCN)NC(=O)[C@H](CCCNC(=N)N)NC(=O)[C@H](C)NC(=O)[C@H](CO)NC(=O)[C@H](CC(C)C)NC(=O)[C@H](CCC(N)=O)NC(=O)[C@H](CC)NC(=O)[C@H](CC(C)C)NC(=O)[C@@H](NC(=O)[C@H](CCCCNC(=N)N)NC(=O)[C@H](CCCNC(=N)N)NC(=O)[C@H](Cc1ccc(O)cc1)NC(=O)[C@H](CCCNC(=N)N)NC(=O)[C@H](CC(N)=O)NC(=O)[C@@H](NC(=O)[C@H](Cc1ccc(Cl)cc1)NC(=O)[C@@H](NC(=O)[C@H](C)NC(=O)[C@H](CC(=O)O)NC(=O)[C@@H](CCCNC(=N)N)NC(=O)[C@H](Cc1ccc(O)cc1)NC(=O)Cc1ccccc1)[C@@H](C)CC)[C@@H](C)O)C(C)C)[C@@H](C)CC)C(=O)N[C@H](CCCNC(=N)N)C(=O)N[C@@H](CCCCNC(=N)N)C(N)=O [Peptide 43, [PhAc-Tyr^1, D-Arg^2, Phe(pC)^6, Arg^9, Har^12, Abu^15, Nle^27, D-Arg^28, Har^29]hGH-RH(1-29)NH2] (PhAc-Y[dR]DAI[Phe(4-Cl)]TNRYR[hArg]VL[Abu]QLSARKLLQDI[Nle][dR][hArg]-NH2) | 82 % of control | 74 % of control | 102 % of control | 72 % of control | 51 % of control |  |  |  |  |  |  |  |  |  |  |  | 
3 | [PhAc-Tyr^1, D-Arg^2, Phe(pCl)^6, Arg^9, Amp^10, Abu^15, Nle^27, D-Arg^28, Har^29]hGH-RH(1-29)NH2 [Peptide 30] | 18 % of control | 11 % of control | 7 % of control | 7 % of control | 8 % of control | high endocrine antagonistic potencies |  |  |  |  |  |  | 60 % of control | 24 % of control | 34 % of control | 32 % of control | 53 % of control
4 | [PhAc-Tyr^1, D-Arg^2, Phe(pCl)^6, Har^9, Tyr(Me)^10, Abu^15, Nle^27, D-Arg^28, Agm^29]hGH-RH(1-29) [Peptide 52] | 86 % of control | 13 % of control | 45 % of control | 26 % of control | 55 % of control |  |  |  |  |  |  |  |  |  |  |  | 
5 | [PhAc-Tyr^1, D-Arg^2, Phe(pCl)^6, Har^9, Tyr(Me)^10, Har^11, Abu^15, Nle^27, D-Arg^28, Har^29]hGH-RH(1-29)NH2 [Peptide 63] | 53 % of control | 47 % of control | 49 % of control | 51 % of control |  |  |  |  |  |  |  |  |  |  |  |  | 
6 | [CH3(CH2)10CO-Tyr^1, D-Arg^2, Phe(pCl)^6, Arg^9, Abu^15, Nle^27, D-Arg^28, Har^29]hGH-RH(1-29)NH2 [Peptide 8] | 37 % of control | 31 % of control | 48 % of control | 44 % of control | 40 % of control |  |  |  |  |  |  |  |  |  |  |  | 
7 | [CH3(CH2)14CO-Tyr^1, D-Arg^2, Phe(pCl)^6, Arg^9, Abu^15, Nle^27, D-Arg^28, Har^29]hGH-RH(1-29)NH2 [Peptide 12] | 35 % of control | 30 % of control | 35 % of control | 51 % of control | 43 % of control |  |  |  |  |  |  |  |  |  |  |  | 
8 | [CH3(CH2)12CO-Tyr^1, D-Arg^2, Phe(pCl)^6, Arg^9, Abu^15, Nle^27, D-Arg^28, Har^29]hGH-RH(1-29)NH2 [Peptide 10] | 60 % of control | 30 % of control | 36 % of control | 37 % of control | 44 % of control |  |  |  |  |  |  |  |  |  |  |  | 
9 | [Hca-Tyr^1, D-Arg^2, Phe(pCl)^6, Har^9, Tyr(Me)^10, Abu^15, Nle^27, D-Arg^28, Har^29, D-Arg^30]hGH-RH(1-29)NH2 [Peptide 58] | 78 % of control and 94 % of control and 64 % of control | 53 % of control and 41 % of control | 56 % of control and 57 % of control and 59 % of control | 47 % of control and 64 % of control and 50 % of control | 64 % of control and 69 % of control |  |  |  |  |  |  |  |  |  |  |  | 
10 | CCCC[C@H](NC(=O)[C@@H](NC(=O)[C@H](CC(=O)O)NC(=O)[C@H](CCC(N)=O)NC(=O)[C@H](CC(C)C)NC(=O)[C@H](CC(C)C)NC(=O)[C@H](CCCCN)NC(=O)[C@H](CCCNC(=N)N)NC(=O)[C@H](C)NC(=O)[C@H](CO)NC(=O)[C@H](CC(C)C)NC(=O)[C@H](CCC(N)=O)NC(=O)[C@H](CC)NC(=O)[C@H](CC(C)C)NC(=O)[C@@H](NC(=O)[C@H](CCCCN)NC(=O)[C@H](CCCNC(=N)N)NC(=O)[C@H](Cc1ccc(C(=O)c2ccccc2)cc1)NC(=O)[C@H](CCCCNC(=N)N)NC(=O)[C@H](CC(N)=O)NC(=O)[C@@H](NC(=O)[C@H](Cc1ccc(O)cc1)NC(=O)[C@@H](NC(=O)[C@H](C)NC(=O)[C@H](CC(=O)O)NC(=O)[C@@H](CCCNC(=N)N)NC(=O)[C@H](Cc1c[nH]cn1)NC(=O)Cc1ccccc1)[C@@H](C)CC)[C@@H](C)O)C(C)C)[C@@H](C)CC)C(=O)N[C@H](CCCNC(=N)N)C(=O)N[C@@H](CCCCNC(=N)N)C(N)=O [Peptide 42, [PhAc-His^1, D-Arg^2, Tyr^6, Har^9, Bpa^10, Abu^15, Nle^27, D-Arg^28, Har^29]hGH-RH(1-29)NH2] (PhAc-H[dR]DAIYTN[hArg][Bpa]RKVL[Abu]QLSARKLLQDI[Nle][dR][hArg]-NH2) | 52 % of control | 7 % of control | 9 % of control | 8 % of control | 13 % of control | high endocrine antagonistic potencies |  |  |  |  |  |  |  |  |  |  | 

Reference: US7452865B2, “Antagonistic analogs of GH RH (2003)” (The Administrare's of the Tulane Educational Fund, priority 2004, dated 2008)
